Data taken from patent US20130324508A1, “BIOMARKER FOR PROSTATE CANCER AND METHOD OF USING THE SAME” (UNIVERSITY OF TENNESSEE RESEARCH FOUNDATION, priority 2012, published 2013).

Columns and labels:
[1] = system: 22Rv1; assay: PSA and Runx 2II gene expression in 22Rv1 cells (real time RT-PCR); type: cell-based, human; conditions: for PSA gene expression / Runx 2II gene expression: 22Rv1, 8 hours stimulation, OC 80 ng/ml, arginine 30 mM, R1881 100 nM; for PSA gene expression: FIG. 4A; for Runx 2II gene expression: FIG. 4B
Description: (§1) Human tissue cDNAs were obtained from Clontech Laboratories, Inc. Total RNA from human prostate cancer cells was isolated with RNeasy Mini Kit (Qiagen Inc., Valencia, Calif.). RT-PCR was done using two-step RNA PCR (Perkin-Elmer). In separate reactions, 2.0 μg of DNase-treated total RNA was reverse-transcribed into cDNA with the respective reverse primers specified below and Moloney murine leukemia virus reverse transcriptase (Gibco Life Technologies, Inc.). Reactions were carried out at 42° C. for 60 min followed by 94° C. for 5 min and 5° C. for 5 min. The products of first-strand cDNA synthesis were directly amplified by PCR using AmpliTaq DNA polymerase (Perkin-Elmer). The primers for human GPRC6A are as follows: hGPRC6A.F203: […] (SEQ ID NO: 1) and hGPRC6A.R630: […] (SEQ ID NO: 2). For housekeeping gene control G3PDH gene, G3PDH.F143: […] (SEQ ID NO: 3) and G3PDH.R1050: […] (SEQ ID NO: 4). For quantitative real time RT-PCR assessment of PSA and Runx 2II genes expression, total RNA was isolated and reverse transcribed from 22Rv1 cells that stimulated with or without OC (80 ng/ml), arginine (30 mM) and R1881 (100 nM) as previously described using specific primer sets. The primers sequences were PSA. For: […] (SEQ ID NO: 5) and PSA.Rev: […] (SEQ ID NO: 6); Runx 2. For: […] (SEQ ID NO: 7) and Runx 2. Rev: […] (SEQ ID NO: 8), and the threshold cycle (Ct) of tested-gene product from the indicated genotype was normalized to the Ct for cyclophilin A as previously described (18).
(§2) After 8 hours stimulation, OC, arginine and R1881 stimulated PSA and Runx 2II gene expression in human prostate cancer 22Rv1 (FIG. 4A and FIG. 4B) and PC-3 cells (FIG. 4C and FIG. 4D). * indicates a significant difference from control and stimulation at p<0.05 respectively.
To investigate whether the observed ligand-induced PSA and Runx2 gene expression in the prostate cancer cells is due to simulation of GPRC6A, the response to GPRC6A ligands was examined after knock-down of GPRC6A. ERK activity was assessed in 22Rv1 stably transfected with GPRC6A siRNA-514 and compared this response to transfected cells with a random negative control siRNA plasmid, which were used as controls.

[2] = system: PC-3; assay: PSA and Runx 2II gene expression in PC-3 cells (real time RT-PCR); type: cell-based, human; conditions: 8 hours stimulation; for PSA gene expression: FIG. 4C; for Runx 2II gene expression: FIG. 4D
Description: as §1, §2

[3] = system: non-transfected HEK-293 cells; assay: ERK activation in non-transfected HEK-293 cells (Western blot); type: cell-based; conditions: same ligand concentrations, 5 min
Description: (§3) Briefly, human prostate cancer cells and the cells transfected with GPRC6A will be made quiescent by overnight incubation in serum-free DMEM/F12 containing 0.1% BSA and stimulated with various ligands at different doses. ERK activation will be assessed 5 to 30 minutes after treatment by immunoblotting using anti-phospho-ERK1/2 MAP kinase antibody (Cell Signaling Technology) corrected for the amount of ERK using an anti-ERK1/2 MAP Kinase antibody (Cell Signaling Technology) to measure ERK levels.
(§4) Referring to FIG. 2. […] Here, calcium (1-20 mM), zinc (0.2-0.8 mM), OC (5-60 ng/ml), arginine (5-30 mM), and testosterone-BSA (5-100 nM) are confirmed to be functional ligands for GPRC6A (16-17, 19). […] Calcium (10 mM), zinc (0.2 mM), OC (20 ng/ml), arginine (20 mM), and testosterone-BSA (60 nM) increased phospho-ERK in both of these cells. The HEK cells transfected with GPRC6A or without the plasmid cDNA of GPRC6A or 22Rv1 or PC-3 were incubated in Dulbecco's modified Eagle's medium/F-12 containing 0.1% bovine serum albumin quiescence media and exposed to the extracellular calcium, OC, arginine, or testosterone-BSA at indicated concentrations for 5 min, and ERK activation was determined as described under Materials and Methods. Representative blots are shown, and the results were verified in at least three independent experiments.

[4] = system: 22Rv1; assay: ERK activation in 22Rv1 prostate cancer cells (Western blot); type: cell-based, human; conditions: for phospho-ERK: 22Rv1 (androgen receptor positive), calcium 10 mM, zinc 0.2 mM, OC 20 ng/ml, arginine 20 mM, testosterone-BSA 60 nM, 5 min, FIG. 2B; for OC and testosterone stimulated phospho-ERK activity: FIG. 5B
Description: as §3, §4
(§5) To confirm the importance of GPRC6A signaling in prostate cancer cell line, the response to GPRC6A ligands was accessed after knock-down of GPRC6A using siRNA. For these studies, ERK activity was assessed in 22Rv1 and PC-3 cells stably transfected with GPRC6A siRNA-202 and siRNA-514. These responses were compared control groups consisting of mock-transfected cells and transfected cells with a random negative control siRNA plasmid.

[5] = system: PC-3; assay: ERK activation in PC-3 prostate cancer cells (Western blot); type: cell-based, human; conditions: for phospho-ERK: PC-3 (androgen receptor negative), calcium 10 mM, zinc 0.2 mM, OC 20 ng/ml, arginine 20 mM, testosterone-BSA 60 nM, 5 min, FIG. 2B; for OC and testosterone stimulated phospho-ERK activity: PC-3 transfected with siRNA, FIG. 5B
Description: as §3, §4, §5

[6] = system: GPRC6A; assay: ERK activation in HEK-293 cells transfected with GPRC6A (Western blot); type: cell-based; conditions: HEK-293 overexpressing GPRC6A; 5 min; calcium 1-20 mM, zinc 0.2-0.8 mM, OC 5-60 ng/ml, arginine 5-30 mM, testosterone-BSA 5-100 nM; FIG. 2A
Description: as §3, §4

[7] = system: GPRC6A; assay: siRNA suppression of GPRC6A gene expression (RT-PCR); type: cell-based, human; conditions: compared to controls, FIG. 5A
Excerpt: For GPRC6A knockdown experiments, two short interfering RNAs (siRNAs) (19 nucleotides each) have been designed from the hGPRC6A sequence (NM_148963) (SEQ ID NO: 9). These are GPRC6A siRNA-202: CCAGGAGTGTGTTGGCTTT (SEQ ID NO: 10) and siRNA-514: GCCACAGGTGGGTTATGAA (SEQ ID NO: 11). Two siRNA hairpins were synthesized and cloned into a pSilencer™ 4.1-CMV neo vector (Ambion). A circular pSilencer™ 4.1-CMV neo vector that expresses a hairpin siRNA with limited homology to any known sequence was used as a negative control. The constructs of siRNA duplexes have been stably transfected into human prostate cancer cells using Lipofectamine™ (Invitrogen) and were selected by G418 (Invitrogen). Successful knock down of GPRC6A will be confirmed by assessing RT-PCR analysis of GPRC6A expression.
as §5

[8] = 22Rv1 stably transfected with siRNA
[9] = PC-3 stably transfected with siRNA

C[C@]1(O)CC[C@H]2[C@@H]3CCC4=CC(=O)CCC4=C3C=C[C@@]21C [R1881, Methytrienolone]
PSA gene expression [1]: stimulated
Runx 2II gene expression [1]: stimulated
PSA gene expression [2]: stimulated
Runx 2II gene expression [2]: stimulated

N=C(N)NCCC[C@H](N)C(=O)O [arginine, L-Arginine]
ERK response [3]: failed to respond
phospho-ERK [4]: increased
PSA gene expression [1]: stimulated
Runx 2II gene expression [1]: stimulated
PSA gene expression [2]: stimulated
Runx 2II gene expression [2]: stimulated
phospho-ERK [5]: increased
stimulation of ERK activity [6]: dose-dependent stimulation

[Cl-].[Cl-].[Zn+2] [zinc, zinc chloride]
ERK response [3]: failed to respond
phospho-ERK [4]: increased
phospho-ERK [5]: increased
stimulation of ERK activity [6]: dose-dependent stimulation

GPRC6A siRNA-202: siRNA, 19 nucleotides, CCAGGAGTGTGTTGGCTTT (SEQ ID NO: 10), hairpin cloned into pSilencer 4.1-CMV neo vector
mRNA expression of GPRC6A [7, 8]: Decreased
mRNA expression of GPRC6A [7, 9]: Decreased
OC and testosterone stimulated phospho-ERK activity ([4]; 22Rv1 transfected with siRNA): significantly decreased
ERK phosphorylation by extracellular calcium, testosterone, arginine and OC ([4]; 22Rv1 transfected with siRNA, FIG. 5C): failed to stimulate
OC and testosterone stimulated phospho-ERK activity [5]: significantly decreased

siRNA-514: siRNA, 19 nucleotides, GCCACAGGTGGGTTATGAA (SEQ ID NO: 11), hairpin cloned into pSilencer 4.1-CMV neo vector
mRNA expression of GPRC6A [7, 8]: Decreased
mRNA expression of GPRC6A [7, 9]: Decreased
OC and testosterone stimulated phospho-ERK activity ([4]; 22Rv1 transfected with siRNA): significantly decreased
ligand-induced mRNA expression of PSA ([1]; 22Rv1 stably transfected with siRNA versus negative control siRNA, FIG. 6A): Significantly decreased
ligand-induced mRNA expression of Runx2 ([1]; 22Rv1 stably transfected with siRNA versus negative control siRNA, FIG. 6B): Significantly decreased
OC and testosterone stimulated phospho-ERK activity [5]: significantly decreased
